# Key:
# [1] = Enzalutamide and N-desmethyl enzalutamide trough plasma PK (LC–MS/MS); settings: for ENZAdm Cmin D1: 24 h sample relative to Cmin D0; for ENZAdm Cmin D1 / ENZAdm Cmin D0: geometric mean (geometric SD); for ENZAdm Cmin D0: pre 1st venetoclax sample on day 1
# Description: Additional samples were collected prior to dosing on days 8, 15, 21, and 57 (Fig. 1A). Samples were centrifuged at approximately 1,000 × g, and plasma was stored at −70 °C or colder until analysis.
# Plasma PK parameters were derived from the data by non-compartmental methods with WinNonlin (Certara, Princeton, NJ). Statistical analyses for PK parameter values were performed using SPSS 27.0 for Windows (SPSS Inc., Chicago, IL). Within patient variability in Cmin was calculated from the day 8 through day 57 data across doses by calculating 100 × the square root of the mean square within groups obtained after ANOVA of log-transformed values of these parameters with subject as a factor.
# [2] = cited from earlier work
# AR−/lo LAPC9-CRPC = system: AR−/lo LAPC9-CRPC; parameters: method as in PMID 30190514; settings: single agent; cited from earlier work
# CYP3A4 = settings: a sensitive CYP3A4 substrate; cited from earlier work
"Intrapatient variability in Cmin ([1]; male, human, in vivo) [%CV]","ENZA Cmin D1 ([1]; male, human, in vivo, 24 h)",SMILES,"Intrapatient variability in Cmin ([1]; N-desmethyl enzalutamide, from day 1 through 57) [%CV]",ENZAdm Cmin D1 ([1]; venetoclax 400 mg (N=3)),ENZAdm Cmin D0 ([1]; venetoclax 400 mg (N=3)),ENZAdm Cmin D1 ([1]; venetoclax 600 mg (N=3)),ENZAdm Cmin D0 ([1]; venetoclax 600 mg (N=3)),ENZAdm Cmin D1 ([1]; venetoclax 800 mg (N=4)),N-desmethyl enzalutamide concentration in previous reports [2] [µg/L],Growth of AR−/lo LAPC9-CRPC (AR−/lo LAPC9-CRPC),Increase in oral clearance of midazolam (CYP3A4),Enzalutamide concentration in previous reports [2] [µg/L]
,,CC1(C)C(=O)N(c2ccc(C#N)c(C(F)(F)F)c2)C(=S)N1c1ccc(C(N)=O)c(F)c1 [N-desmethyl enzalutamide],10,7.59 (1.34) µg/mL,7.04 (1.31) µg/mL,15.1 (1.12) µg/mL,15.2 (1.07) µg/mL,14.2 (1.21) µg/mL,13,,,
7.0,12.4 (1.19) µg/mL,CNC(=O)c1ccc(N2C(=S)N(c3ccc(C#N)c(C(F)(F)F)c3)C(=O)C2(C)C)cc1F [enzalutamide],,,,,,,,not,sevenfold,11.4
